Patent US10703756B2, “Pyrrolo[2,3-D]pyrimidinyl, pyrrolo[2,3-B]pyrazinyl, pyrrolo[2,3-B]pyridinyl acrylamides and epoxides thereof” (Pfizer Inc., priority 2015, dated 2020)

Assays:
JAK3 enzyme = molecular target: T1, JAK3 enzyme (Homo sapiens, UniProt P52333); test: JAK Caliper Enzyme Assay at 4 μM ATP; assay type: biochemical
T1 sequence (P52333 1-1124): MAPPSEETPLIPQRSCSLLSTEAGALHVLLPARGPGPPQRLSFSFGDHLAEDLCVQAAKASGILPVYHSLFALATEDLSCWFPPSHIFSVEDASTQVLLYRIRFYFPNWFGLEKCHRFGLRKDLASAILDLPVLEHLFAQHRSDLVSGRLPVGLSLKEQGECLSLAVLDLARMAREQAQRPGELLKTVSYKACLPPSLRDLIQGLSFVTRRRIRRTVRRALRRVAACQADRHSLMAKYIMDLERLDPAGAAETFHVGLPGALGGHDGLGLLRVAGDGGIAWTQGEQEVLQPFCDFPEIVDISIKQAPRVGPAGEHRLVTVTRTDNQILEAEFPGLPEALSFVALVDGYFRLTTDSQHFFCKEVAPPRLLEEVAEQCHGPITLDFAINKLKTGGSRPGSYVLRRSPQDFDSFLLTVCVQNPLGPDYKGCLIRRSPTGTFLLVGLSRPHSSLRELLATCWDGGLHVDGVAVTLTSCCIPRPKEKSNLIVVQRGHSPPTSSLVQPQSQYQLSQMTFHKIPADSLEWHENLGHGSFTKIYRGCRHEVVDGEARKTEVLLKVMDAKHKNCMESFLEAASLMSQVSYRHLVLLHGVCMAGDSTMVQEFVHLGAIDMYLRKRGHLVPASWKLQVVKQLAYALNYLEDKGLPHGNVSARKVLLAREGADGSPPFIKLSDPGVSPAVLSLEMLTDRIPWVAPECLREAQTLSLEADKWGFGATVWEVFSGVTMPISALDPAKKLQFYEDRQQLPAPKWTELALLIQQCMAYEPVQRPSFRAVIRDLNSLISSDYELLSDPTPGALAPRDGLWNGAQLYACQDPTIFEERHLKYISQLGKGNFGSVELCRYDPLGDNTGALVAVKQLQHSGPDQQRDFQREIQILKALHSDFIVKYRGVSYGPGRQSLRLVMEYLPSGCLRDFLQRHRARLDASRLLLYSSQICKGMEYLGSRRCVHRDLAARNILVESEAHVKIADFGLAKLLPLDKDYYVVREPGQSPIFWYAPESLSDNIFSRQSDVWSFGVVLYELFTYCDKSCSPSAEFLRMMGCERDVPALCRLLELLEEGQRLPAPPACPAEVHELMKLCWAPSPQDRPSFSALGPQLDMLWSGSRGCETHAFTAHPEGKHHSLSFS
Outline: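 Test compounds were diluted in DMSO as an 11-point half-log series from a 600 μM top concentration (DMSO series, not final assay level). Enzyme amount and incubation time were set per enzyme prep to reach 20%-30% phosphorylation. Phosphorylated and unphosphorylated peptide were resolved by microfluidic separation.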

[1] = Stability of JAK3 Covalent Inhibitors in Human Whole Blood; assay type: in vitro ADME; conditions: both sexes, 1 μM test compound, 37° C., 180 min incubation, read-out: Human blood stability t1/2
Outline: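 Compound at 1 μM final incubated in duplicate at 37° C for 180 min in fresh K2-EDTA whole blood […]. Samples quenched in acetonitrile with internal standard; LC-MS/MS peak area ratios gave % parent remaining over time.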

[2] = system: IL-15 induced STAT5 phosphorylation in human whole blood lymphocytes; test: HWB IL-15 Induced STAT5 Phosphorylation Assay; assay type: cell-based; conditions: Lymphocyte, IL-15 final 50 ng/ml, read-out: HWB_IL15 pSTAT5 IC50
Outline: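 Heparinised human whole blood preincubated with compound (0.2% DMSO final) 45 min at 37° C, then stimulated with human IL-15 (50 ng/ml final) for 15 min. After lyse/fix and Perm Buffer III permeabilisation, stained overnight at 4° C with AlexaFluor647 anti-phospho-STAT5; read by flow cytometry gated on total lymphocytes.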

Structure (SMILES) | IC50 (JAK3 enzyme) [nM] | half-life at 1 μM [1] [min] | IC50 [2] [nM]
C=CC(=O)N1C[C@H](Nc2ncnc3[nH]ccc23)CC[C@@H]1CNC(C)=O (racemic) [Example 88, rac-N-(((2R,5R)-5-((7H-pyrrolo[2,3-d]pyrimidin-4-yl)amino)-1-acryloylpiperidin-2-yl)methyl)acetamide] | 1.5 | > 360 | 5050
C=CC(=O)N1CCC(Oc2cnc3[nH]cc(C(=O)NC45CC(C4)C5)c3n2)CC1 [Example 200, 2-[(1-acryloylpiperidin-4-yl)oxy]-N-(bicyclo[1.1.1]pent-1-yl)-5H-pyrrolo[2,3-b]pyrazine-7-carboxamide] | 0.411 | > 360 | 1520
C=CC(=O)N1CCC(Oc2cnc3[nH]cc(C(=O)N[C@H](C)CC)c3n2)CC1 [Example 227, 2-[(1-acryloylpiperidin-4-yl)oxy]-N-[(2R)-butan-2-yl]-5H-pyrrolo[2,3-b]pyrazine-7-carboxamide] | 0.279 | 270 | 682
C=CC(=O)N1CCC(Oc2cnc3[nH]cc(C(=O)N[C@H]4CC[C@@H](F)C4)c3n2)CC1 [Example 225, 2-[(1-acryloylpiperidin-4-yl)oxy]-N-[(1S,3R)-3-fluorocyclopentyl]-5H-pyrrolo[2,3-b]pyrazine-7-carboxamide] | 0.233 | 236 | 772
C=CC(=O)N1CCC[C@H](Nc2cnc3[nH]cc(C(=O)NCC)c3n2)C1 (single isomer, unassigned) [Example 36] | 0.875 | > 360 | 1090

These reach a lower IC50 (JAK3 enzyme). Values come first.

IC50 (JAK3 enzyme) [nM] | half-life at 1 μM [1] [min] | IC50 [2] [nM] | Structure (SMILES)
0.219 | 114 | 703 | C=CC(=O)N1C[C@H](COCCC#N)C[C@H](Nc2ncnc3[nH]ccc23)C1 [Example 101, 3-{[(3R,5S)-1-Acryloyl-5-(7H-pyrrolo[2,3-d]pyrimidin-4-ylamino)piperidin-3-yl]methoxy}propanenitrile]
0.159 | 225 | 515 | C=CC(=O)N1CC[C@H](Nc2cnc3[nH]cc(C(=O)NCC)c3n2)C[C@H]1C (single isomer, unassigned) [Example 41]
0.138 | 250 | 513 | C=CC(=O)N1CCC(Oc2cnc3[nH]cc(C(=O)N[C@@H](C)CC)c3n2)CC1 [Example 205, 2-[(1-acryloylpiperidin-4-yl)oxy]-N-[(2S)-butan-2-yl]-5H-pyrrolo[2,3-b]pyrazine-7-carboxamide]
